These results are taken from ChEMBL document CHEMBL1201862, “PubChem BioAssay data set” (2004).

Activity calls are given as the source filed them.

Assay [1] is described as follows: fluconazole-exposed Candida albicans growth modulators – fluorescence, retest, confirmation (AID 2467). The class given is functional, cell-based.
The nature of assay [2]: NIH-3T3 fibroblast cytotoxicity, dose response, cytotoxicity control, cell-based, fluorescence, Alamar Blue, secondary assay (AID 2327).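 Note: NIH-3T3 mouse fibroblasts cultured with fluconazole at 8 µg/mL.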 The class given is functional. In general terms: The colour change of resazurin is a common sign of viable cells or microbes.
Assay [3] in a line: Intein inhibitors as potential Tuberculosis drugs, a cytotoxicity screen. [Related pubchem assays (depositor defined):AID2221, AID2223, AID434968, AID435010, AID449749, AID449750, AID489010]. In kind it is functional.
The target in another assay is T1, Protein RecA (Mycobacterium tuberculosis, UniProt P9WHJ3).
T1 sequence (P9WHJ3 whole entry): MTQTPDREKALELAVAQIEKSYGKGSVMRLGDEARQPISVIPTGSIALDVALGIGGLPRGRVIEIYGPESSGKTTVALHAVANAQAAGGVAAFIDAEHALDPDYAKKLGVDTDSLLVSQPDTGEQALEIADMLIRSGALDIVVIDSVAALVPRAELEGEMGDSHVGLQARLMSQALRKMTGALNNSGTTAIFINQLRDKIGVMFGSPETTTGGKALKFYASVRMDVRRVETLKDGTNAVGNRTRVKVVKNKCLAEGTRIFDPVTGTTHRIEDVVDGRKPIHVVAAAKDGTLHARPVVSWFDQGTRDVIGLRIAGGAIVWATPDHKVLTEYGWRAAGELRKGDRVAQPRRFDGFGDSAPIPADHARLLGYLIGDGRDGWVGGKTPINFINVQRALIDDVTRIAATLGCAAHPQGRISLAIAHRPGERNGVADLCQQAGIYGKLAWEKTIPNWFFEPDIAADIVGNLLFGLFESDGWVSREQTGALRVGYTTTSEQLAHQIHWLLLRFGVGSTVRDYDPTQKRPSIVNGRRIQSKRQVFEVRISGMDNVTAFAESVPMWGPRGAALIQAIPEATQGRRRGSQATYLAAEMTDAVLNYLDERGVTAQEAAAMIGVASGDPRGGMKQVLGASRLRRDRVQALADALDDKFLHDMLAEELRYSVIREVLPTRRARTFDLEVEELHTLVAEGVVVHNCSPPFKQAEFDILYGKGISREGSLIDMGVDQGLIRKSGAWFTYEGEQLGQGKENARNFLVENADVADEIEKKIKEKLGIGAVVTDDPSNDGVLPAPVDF
The assay can be described thus: Fluorescence Cell-Free Homogeneous Dose Retest to Identify Inhibitors of RecA-Intein Splicing Activity. [Related pubchem assays (depositor defined):AID2097, AID2223, AID489010, AID492950]. In kind it is functional.

The subject of a further assay is INS1. The assay can be described thus: INS-1E survival protection against cytokine death – cell-based, luminescence, retest, dose response (AID 449756).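 Note: cell death triggered by IL-1 beta plus TNF-alpha plus IFN-gamma mixture; protective hits raise ATP signal compared with cytokine alone wells.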 The class given is functional. The settings on record: Rattus norvegicus.
A further assay has as its target T2, Caspase-3 (Homo sapiens, UniProt P42574).
T2 sequence (P42574 whole entry): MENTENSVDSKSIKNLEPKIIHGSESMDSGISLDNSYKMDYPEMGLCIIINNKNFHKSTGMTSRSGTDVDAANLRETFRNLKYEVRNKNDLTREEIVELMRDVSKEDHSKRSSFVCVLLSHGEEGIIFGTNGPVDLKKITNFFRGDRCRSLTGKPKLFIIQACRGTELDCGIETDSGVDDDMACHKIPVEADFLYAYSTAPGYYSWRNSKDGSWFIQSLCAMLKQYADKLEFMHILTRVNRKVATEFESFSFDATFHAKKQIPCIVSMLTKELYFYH
The assay can be described thus: human caspase-3 protease activity blockade – biochemical, fluorescence, cherry-picked samples, selectivity assay for caspase-6 allosteric inhibitor project, dose response (AID 743291).

The target in a further assay is Phospholipase A2 (Homo sapiens, UniProt P04054). In kind it is functional.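 Note: confirmatory dose-response counterscreen on phospholipase A2, testing hits that came from an ultra-high-throughput screen for ATG4B inhibitors.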
Chain of Phospholipase A2 (P04054 whole entry): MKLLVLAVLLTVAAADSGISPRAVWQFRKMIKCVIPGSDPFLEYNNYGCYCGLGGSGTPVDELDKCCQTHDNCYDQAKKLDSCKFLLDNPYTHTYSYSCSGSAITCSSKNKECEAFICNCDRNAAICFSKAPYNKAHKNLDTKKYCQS
A further assay concerns the target T3, Caspase-7 (Homo sapiens, UniProt P55210).
T3 sequence (P55210 whole entry): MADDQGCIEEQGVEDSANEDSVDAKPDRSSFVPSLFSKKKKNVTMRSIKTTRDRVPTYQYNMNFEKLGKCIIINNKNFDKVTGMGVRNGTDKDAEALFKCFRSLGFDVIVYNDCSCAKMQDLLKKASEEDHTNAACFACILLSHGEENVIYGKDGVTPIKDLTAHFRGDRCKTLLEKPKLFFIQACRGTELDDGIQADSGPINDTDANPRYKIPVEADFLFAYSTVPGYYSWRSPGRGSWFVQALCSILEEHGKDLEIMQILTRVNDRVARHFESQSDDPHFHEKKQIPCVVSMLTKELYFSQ
The assay can be described thus: caspase-7 enzyme inhibition, selectivity check – biochemical, DEVD-R110 fluorescence, cherry-pick, selectivity assay for caspase-6 inhibitor project, dose response (AID 743295). In kind it is functional.

The next assay concerns the target T4, Caspase-6 (Homo sapiens, UniProt P55212).
T4 sequence (P55212 whole entry): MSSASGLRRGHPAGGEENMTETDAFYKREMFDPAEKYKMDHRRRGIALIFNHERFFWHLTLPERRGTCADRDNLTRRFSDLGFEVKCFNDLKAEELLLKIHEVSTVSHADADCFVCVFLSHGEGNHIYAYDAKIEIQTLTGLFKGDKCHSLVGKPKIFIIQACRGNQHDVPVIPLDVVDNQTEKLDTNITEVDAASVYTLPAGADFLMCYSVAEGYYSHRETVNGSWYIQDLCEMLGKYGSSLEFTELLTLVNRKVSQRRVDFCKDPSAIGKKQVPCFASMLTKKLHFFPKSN
The assay can be described thus: inhibition of CASP6 peptide cleavage – biochemical, VEID-R110 fluorescence, cherry-pick, dose response (AID 720632).
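Throughout, for CC50: cells exposed to compound for 72 hours before luminescence readout.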

What is called EC50 is the concentration giving half of the maximal effect. The term CC50 denotes the concentration at which the toxic effect on the cells reaches its halfway point. On to `CCCCCCCCCCn1c2c(c(=N)c3c1CCC3)CCC2`, for which the EC50 in assay [1] was 0.779 µM (active); in assay [2], 26.1 µM (active); on Protein RecA, 1.83 µM (active). In addition, in [3], the CC50 is 8.51 µM (active).
As a reminder, the AC50 is the concentration at which the activity in the assay is half-maximal. One may read the IC50 as the concentration needed to halve the response being measured. For `Cn1nc(-c2ccccn2)nc2c(=O)n(C)c(=O)nc1-2`, the half-maximal activity concentration (AC50) with INS1 was 1.92 µM (active); on Caspase-3, 6.73 µM (active); on Caspase-7, 0.371 µM (active); at Caspase-6 it was 0.219 µM (active). In addition, the IC50 on Phospholipase A2 was > 80 µM (inactive). In addition, the CC50 in [3] is > 40 µM (active). The concentration giving a half-maximal response (EC50) at Protein RecA is 0.0191 µM (active).
On to `CCC(=O)NC(c1ccc(OC)cc1)c1cc(Cl)c2cccnc2c1O` (stereo not drawn), for which the AC50 with INS1 is 1.08 µM (active). Also, the EC50 in assay [1] was 0.769 µM (active); in assay [2], 12.6 µM (inconclusive).
As for `COc1ccc(NS(=O)(=O)c2ccc3c(c2)[C@H]2C=CC[C@H]2[C@@H](c2ccc(C(=O)O)cc2)N3)cc1`, the AC50 at Caspase-3 is 18.2 µM (active); at Caspase-7, > 70 µM (inactive); on Caspase-6, 4.43 µM (active). The IC50 at Phospholipase A2 was 6.87 µM (active).
